Read-outs that look alike come from different tables or passages of the source.
Assays:
[1] = system: human colorectal carcinoma HCT116 cells; assay: Anti-proliferation assay (Alamar Blue metabolism), HCT116 cells;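 note: cells in 384-well plates exposed to compound combination matrices for 72 h, Alamar Blue fluorescence read (excitation 530 nm), inhibition calculated against mean of vehicle-only wells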
Description: Stock solutions (1000×) of each compound were prepared in DMSO and stored at −20° C. Master stock plates of 2-fold or 4-fold serial dilutions of individual compounds were prepared in 384-well plates. Combination matrices of test compounds were generated from these master stock plates by dilution into growth media described above. […] The combination matrices were used immediately and discarded.
The anti-proliferation assays were performed in 384-well plates. […] Cells were diluted in culture media such that 3,000 SKMEL-28 cells, or 1,500 cells for all the other cell lines, were delivered in 35 μl of media into each assay well. Assay plates were incubated for 16-24 hours 37° C.±0.5° C. with 5% CO2. After incubation, 4.5 μl of 10× stock solutions from the combination matrices were added to 40 μl of culture media. Assay plates were further incubated for 72 hours at 37° C.±0.5° C. with 5% CO2. […] Alamar Blue metabolism was quantified by the amount of fluorescence intensity 3.5-5.0 hours after addition. Quantification, using an LJL Analyst AD reader (LJL Biosystems), was taken in the middle of the well with high attenuation, a 100 msec read time, an excitation filter at 530 nm, and an emission filter at 575 nm. For some experiments, quantification was performed using a Wallac Victor^2 reader. Measurements were taken at the top of the well with stabilized energy lamp control; a 100 msec read time, an excitation filter at 530 nm, and an emission filter at 590 nm.

[2] = system: human pancreatic cancer PANC1 cells; assay: Anti-proliferation assay (Alamar Blue metabolism), PANC1 cells; type: cell-based; conditions: PANC1 cells
Excerpt: (§1) The combination matrices were used immediately and discarded.

[3] = system: human melanoma SKMEL-28 cells; assay: Anti-proliferation assay (Alamar Blue metabolism), SKMEL-28 cells; type: cell-based
Excerpt: as §1

[4] = system: human prostate cancer DU145 cells; assay: Anti-proliferation assay (Alamar Blue metabolism), DU145 cells; type: cell-based; conditions: Homo sapiens, DU-145, DU145 cells
Excerpt: as §1

[5] = system: non-small cell lung carcinoma A549 cells; assay: Anti-proliferation assay (Alamar Blue metabolism), A549 cells; type: cell-based; conditions: A549 cells
Description: Inhibition of proliferation was measured by anti-proliferation assay as described below after incubation with the test compound(s) for 72 hours.
as §1
Cells were diluted in culture media such that 3,000 SKMEL-28 cells, or 1,500 cells for all the other cell lines, were delivered in 35 μl of media into each assay well. Assay plates were incubated for 16-24 hours 37° C.±0.5° C. with 5% CO2. […] Assay plates were further incubated for 72 hours at 37° C.±0.5° C. with 5% CO2. […] Alamar Blue metabolism was quantified by the amount of fluorescence intensity 3.5-5.0 hours after addition.
The percent inhibition (% I) for each well was calculated using the following formula: % I=[(avg. untreated wells−treated well)/(avg. untreated wells)]×100 The average untreated well value (avg. untreated wells) is the arithmetic mean of 40 wells from the same assay plate treated with vehicle alone.

[6] = Homo sapiens, HCT-116, read-out: Percent inhibition of Alamar Blue Metabolism, lovastatin […], econazole 0.0 μM
[7] = Homo sapiens, HCT-116, read-out: Percent inhibition of Alamar Blue Metabolism, tioconazole 0.0 μM, lovastatin […]
[8] = Homo sapiens, HCT-116, read-out: Percent inhibition of Alamar Blue Metabolism, lovastatin 0.0 μM, econazole […]
[9] = with addition of 7 μM itraconazole
[10] = Homo sapiens, HCT-116, read-out: Percent inhibition of Alamar Blue Metabolism, tioconazole […], lovastatin 0.0 μM

Q: With `CC[C@H](C)C(=O)O[C@H]1C[C@@H](C)C=C2C=C[C@H](C)[C@H](CC[C@@H]3C[C@@H](O)CC(=O)O3)[C@H]21` [Lovastatin, lovastatin] as the compound, how does the “reduction in the concentration of lovastatin” value ([1]; HCT116 cells, 6 μM with […] itraconazole vs 48 μM alone) read?
A: 8 fold

Q: What about the inhibition at 6 µM ([1]; Homo sapiens, HCT-116, HCT116 cells, 6.0 μM lovastatin + 9.0 μM tioconazole) of the same compound?
A: 70.1%

Q: And the inhibition at 6 µM ([1]; Homo sapiens, HCT-116, HCT116 cells, 6 μM lovastatin + […] itraconazole)?
A: 83.4%

Q: And the inhibition at 18 µM ([1]; Homo sapiens, HCT-116, HCT116 cells, 18 μM lovastatin + […] econazole)?
A: 84.5%

Q: What about the inhibition at 0.3 µM ([1]; Homo sapiens, HCT-116, read-out: Percent inhibition of Alamar Blue Metabolism, lovastatin 0.3 μM, econazole 0.0 μM) of the same compound?
A: 10.5%

Q: What about the inhibition at 0.6 µM ([1]; Homo sapiens, HCT-116, read-out: Percent inhibition of Alamar Blue Metabolism, lovastatin 0.6 μM, econazole 0.0 μM) of the same compound?
A: 5.4%

Q: And the inhibition at 9 µM ([1]; Homo sapiens, HCT-116, read-out: Percent inhibition of Alamar Blue Metabolism, lovastatin 9.0 μM, econazole 0.0 μM)?
A: 27.3%

Q: What about the inhibition at 18 µM [1, 6] of the same compound?
A: 41.3%

Q: What about the inhibition at 36 µM [1, 6] of the same compound?
A: 95.6%

Q: What about the inhibition at 0.2 µM ([1]; Homo sapiens, HCT-116, read-out: Percent inhibition of Alamar Blue Metabolism, tioconazole 0.0 μM, lovastatin 0.2 μM) of the same compound?
A: 9.8%

Q: What about the inhibition at 0.4 µM ([1]; Homo sapiens, HCT-116, read-out: Percent inhibition of Alamar Blue Metabolism, tioconazole 0.0 μM, lovastatin 0.4 μM) of the same compound?
A: 23.1%

Q: And the inhibition at 0.8 µM ([1]; Homo sapiens, HCT-116, read-out: Percent inhibition of Alamar Blue Metabolism, tioconazole 0.0 μM, lovastatin 0.8 μM)?
A: 12.3%

Q: What about the inhibition at 3 µM ([1]; Homo sapiens, HCT-116, read-out: Percent inhibition of Alamar Blue Metabolism, tioconazole 0.0 μM, lovastatin 3.0 μM) of the same compound?
A: 29.9%

Q: And the inhibition at 6 µM ([1]; Homo sapiens, HCT-116, read-out: Percent inhibition of Alamar Blue Metabolism, tioconazole 0.0 μM, lovastatin 6.0 μM)?
A: 46.1%

Q: What about the inhibition at 12 µM [1, 7] of the same compound?
A: 50%

Q: What about the inhibition at 24 µM [1, 7] of the same compound?
A: 61.9%

Q: What about the inhibition at […] [1, 7] of the same compound?
A: 32.2%

Q: And the inhibition at 24 µM ([1]; Homo sapiens, HCT-116, read-out: maximal inhibition, HCT116 cells, lovastatin 24 μM alone (Example 22))?
A: 61.9%

Q: And the inhibition at 36 µM ([1]; Homo sapiens, HCT-116, read-out: maximal inhibition, HCT116 cells, lovastatin 36 μM alone (Example 20))?
A: 95.6%

Q: What about the inhibition at 48 µM ([1]; Homo sapiens, HCT-116, read-out: maximal inhibition, HCT116 cells, lovastatin 48 μM alone (Example 14)) of the same compound?
A: 55%

Q: What about the “Percent inhibition of Alamar Blue Metabolism in HCT116 cells” value ([1]; Table 14: itraconazole 14 μM + lovastatin at row conc. c1 (0-48 μM), 72 h) of the same compound?
A: 88.9%

Q: Which results are given for `Clc1ccccc1C(c1ccccc1)(c1ccccc1)n1ccnc1` [clotrimazole]?
A: inhibition at 0.5 µM ([1]; Homo sapiens, HCT-116, read-out: Percent inhibition of Alamar Blue Metabolism, atorvastatin 0.0 μM, clotrimazole 0.5 μM): 25.9%; inhibition at 0.9 µM ([1]; Homo sapiens, HCT-116, read-out: Percent inhibition of Alamar Blue Metabolism, atorvastatin 0.0 μM, clotrimazole 0.9 μM): 35.8%

Q: What does the source list for `CC(C)N1CCN(c2ccc(OCC3COC(Cn4cncn4)(c4ccc(Cl)cc4Cl)O3)cc2)CC1` (stereo not shown) [terconazole]?
A: inhibition at 19 µM ([1]; Homo sapiens, HCT-116, read-out: Percent inhibition of Alamar Blue Metabolism, atorvastatin 0 μM, terconazole 19 μM): 38.4%; inhibition at 38 µM ([1]; Homo sapiens, HCT-116, read-out: Percent inhibition of Alamar Blue Metabolism, atorvastatin 0 μM, terconazole 38 μM): 94.8%

Q: For `Clc1ccc(COC(Cn2ccnc2)c2ccc(Cl)cc2Cl)cc1` (stereo not shown) [econazole], which inhibition at 0.4 µM ([1]; Homo sapiens, HCT-116, read-out: Percent inhibition of Alamar Blue Metabolism, atorvastatin 0.0 μM, econazole 0.4 μM) is on record?
A: 0.7%

Q: And the inhibition at 0.7 µM ([1]; Homo sapiens, HCT-116, read-out: Percent inhibition of Alamar Blue Metabolism, atorvastatin 0.0 μM, econazole 0.7 μM)?
A: -1.7%

Q: And the inhibition at 2.8 µM ([1]; Homo sapiens, HCT-116, read-out: Percent inhibition of Alamar Blue Metabolism, atorvastatin 0.0 μM, econazole 2.8 μM)?
A: 1.6%

Q: And the inhibition at 0.4 µM ([1]; Homo sapiens, HCT-116, read-out: Percent inhibition of Alamar Blue Metabolism, lovastatin 0.0 μM, econazole 0.4 μM)?
A: 0.6%

Q: And the inhibition at 0.8 µM ([1]; Homo sapiens, HCT-116, read-out: Percent inhibition of Alamar Blue Metabolism, lovastatin 0.0 μM, econazole 0.8 μM)?
A: 8.8%

Q: What about the inhibition at 3 µM ([1]; Homo sapiens, HCT-116, read-out: Percent inhibition of Alamar Blue Metabolism, lovastatin 0.0 μM, econazole 3.0 μM) of the same compound?
A: 23.9%

Q: And the inhibition at 6 µM ([1]; Homo sapiens, HCT-116, read-out: Percent inhibition of Alamar Blue Metabolism, lovastatin 0.0 μM, econazole 6.0 μM)?
A: 36.7%

Q: And the inhibition at 48 µM ([1]; Homo sapiens, HCT-116, read-out: Percent inhibition of Alamar Blue Metabolism, lovastatin 0.0 μM, econazole 48.0 μM)?
A: 96.1%

Q: What about the inhibition at 12 µM [1, 8] of the same compound?
A: 57.2%

Q: What about the inhibition at 24 µM [1, 8] of the same compound?
A: 78.6%

Q: What about the inhibition at […] [1, 8] of the same compound?
A: 14.9%

Q: And the inhibition at 36 µM ([1]; Homo sapiens, HCT-116, read-out: maximal inhibition, HCT116 cells, 36 μM alone (Example 18))?
A: 83.1%

Q: Which inhibition at 12 µM ([2]; Homo sapiens, PANC-1, 12 μM fluvastatin + 7 μM itraconazole) does the source give for `CC(C)n1c(/C=C/C(O)CC(O)CC(=O)O)c(-c2ccc(F)cc2)c2ccccc21` (stereo not shown) [Fluvastatin, fluvastatin] here?
A: 56.8%

Q: And the inhibition at 49 µM ([2]; Homo sapiens, PANC-1, fluvastatin 49 μM alone, read-out: maximal inhibition)?
A: 59.9%

Q: What about the inhibition at 3 µM ([3]; Homo sapiens, SK-MEL-28, SKMEL-28 cells, 3 μM fluvastatin + 7 μM itraconazole) of the same compound?
A: 59.5%

Q: And the inhibition at 49 µM ([3]; Homo sapiens, SK-MEL-28, SKMEL-28 cells, fluvastatin 49 μM alone, read-out: maximal inhibition)?
A: 27.8%

Q: And the “reduction in the concentration of fluvastatin” value ([3]; SKMEL-28 cells, 3 μM with 7 μM itraconazole vs 49 μM alone)?
A: 16 fold

Q: What about the “Percent inhibition of Alamar Blue Metabolism in SKMEL-28 cells” value ([3]; Table 13: itraconazole 0.87 μM + fluvastatin at row conc. c1 (0-49 μM), 72 h) of the same compound?
A: 35.4%

Q: And the inhibition at 12 µM ([4]; 12 μM fluvastatin + 14 μM itraconazole)?
A: 40.3%

Q: What about the inhibition at 12 µM ([4]; 12 μM fluvastatin, absence of itraconazole) of the same compound?
A: 15.5%

Q: And the inhibition at 49 µM ([4]; fluvastatin 49 μM alone, read-out: maximal inhibition)?
A: 58.3%

Q: And the “reduction in the concentration of fluvastatin” value ([1]; HCT116 cells, […] with 7 μM itraconazole vs 49 μM alone)?
A: 8 fold

Q: What about the inhibition at […] ([1]; Homo sapiens, HCT-116, HCT116 cells, […] fluvastatin + 7 μM itraconazole) of the same compound?
A: 91.9%

Q: What about the inhibition at 49 µM ([1]; Homo sapiens, HCT-116, read-out: maximal inhibition, HCT116 cells, fluvastatin 49 μM alone) of the same compound?
A: 93.1%

Q: `CCC(C)(C)C(=O)O[C@H]1C[C@@H](C)C=C2C=C[C@H](C)[C@H](CC[C@@H]3C[C@@H](O)CC(=O)O3)[C@H]21` [Simvastatin, simvastatin] was tested. Which “reduction in the concentration of simvastatin” value ([5]; 12 μM with 7 μM itraconazole vs 48 μM alone) did it give?
A: 4 fold

Q: What about the “simvastatin concentration required for nearly maximal inhibition” value [5, 9] of the same compound?
A: 12 µM

Q: What about the “simvastatin concentration required for nearly maximal inhibition” value [2, 9] of the same compound?
A: 12 µM

Q: What about the reduction in simvastatin ([3]; SKMEL-28 cells, 6 μM with 7 μM itraconazole vs 48 μM alone) of the same compound?
A: 8 fold

Q: What about the “inhibition of cell proliferation” value ([3]; SKMEL-28 cells, 9 μM statin + 7 μM itraconazole) of the same compound?
A: 61.8%

Q: What about the inhibition ([3]; SKMEL-28 cells, 9 μM statin, absence of itraconazole) of the same compound?
A: 24.0%

Q: What about the inhibition at 12 µM ([1]; Homo sapiens, HCT-116, HCT116 cells, 12 μM simvastatin + 7 μM itraconazole) of the same compound?
A: 92.7%

Q: Which results are given for `CC[C@H](C)C(=O)O[C@H]1C[C@@H](C)C=C2C=C[C@H](C)[C@H](CCC(O)C[C@@H](O)CC(=O)O)[C@H]21` (stereo partly shown) [lovastatin sodium]?
A: reduction in the concentration of lovastatin ([1]; HCT116 cells, 2.8 μM with 7 μM itraconazole vs 22 μM alone): 8 fold; inhibition at 2.8 µM ([1]; Homo sapiens, HCT-116, HCT116 cells, 2.8 μM lovastatin sodium + 7 μM itraconazole): 82%; inhibition at 22 µM ([1]; Homo sapiens, HCT-116, read-out: maximal inhibition, HCT116 cells, lovastatin sodium 22 μM alone): 58.9%

Q: For `Clc1ccc(C(Cn2ccnc2)OCc2ccsc2Cl)c(Cl)c1` (stereo not shown) [tioconazole], which inhibition at 0.3 µM ([1]; Homo sapiens, HCT-116, read-out: Percent inhibition of Alamar Blue Metabolism, tioconazole 0.3 μM, lovastatin 0.0 μM) is on record?
A: 8.6%

Q: What about the inhibition at 0.6 µM ([1]; Homo sapiens, HCT-116, read-out: Percent inhibition of Alamar Blue Metabolism, tioconazole 0.6 μM, lovastatin 0.0 μM) of the same compound?
A: 3.7%

Q: What about the inhibition at 9 µM ([1]; Homo sapiens, HCT-116, read-out: Percent inhibition of Alamar Blue Metabolism, tioconazole 9.0 μM, lovastatin 0.0 μM) of the same compound?
A: 19.8%

Q: And the inhibition at 18 µM [1, 10]?
A: 26.8%

Q: And the inhibition at 36 µM [1, 10]?
A: 41.3%

Q: `COCc1c(C(C)C)nc(C(C)C)c(/C=C/[C@@H](O)C[C@@H](O)CC(=O)O)c1-c1ccc(F)cc1` [cerivastatin] was tested. Which “reduction in the concentration of cerivastatin” value ([1]; HCT116 cells, […] with […] itraconazole vs 22 μM alone) did it give?
A: 8 fold

Q: What about the inhibition at 22 µM ([1]; Homo sapiens, HCT-116, read-out: Percent inhibition of Alamar Blue Metabolism, cerivastatin 22 μM, itraconazole 0 μM) of the same compound?
A: 85.5%

Q: And the inhibition at 22 µM ([1]; Homo sapiens, HCT-116, read-out: maximal inhibition, HCT116 cells, cerivastatin 22 μM alone)?
A: 85.5%

Source: US20060241122A1, “Combination therapy for the treatment of neoplasms” (priority 2003, published 2006)
